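How tested: cells in 96-well plates exposed to compound for 48 hours at five concentrations. Here, GI50 denotes the concentration required for 50% inhibition of growth. TGI is the concentration that stops growth completely.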
Legend:
Experiment in all cases: NCI anticancer screen, dose series, 48 h
SK-OV-3 ovarian = tested on: SK-OV-3 ovarian
IGROV1 ovarian = tested on: IGROV1 ovarian
SNB-75 CNS = tested on: SNB-75 CNS
UO-31 renal = tested on: UO-31 renal
MALME-3M melanoma = tested on: MALME-3M melanoma
NCI-H460 lung = tested on: NCI-H460 lung
SF-295 CNS = tested on: SF-295 CNS
HCC-2998 colon = tested on: HCC-2998 colon
A498 renal = tested on: A498 renal
MOLT-4 leukemia = tested on: MOLT-4 leukemia
NCI/ADR-RES ovarian = tested on: NCI/ADR-RES ovarian
OVCAR-5 ovarian = tested on: OVCAR-5 ovarian
LOX IMVI melanoma = tested on: LOX IMVI melanoma
UACC-257 melanoma = tested on: UACC-257 melanoma
K-562 leukemia = tested on: K-562 leukemia
NCI-H226 lung = tested on: NCI-H226 lung
MDA-MB-435 = tested on: MDA-MB-435
SW-620 colon = tested on: SW-620 colon
SN12C renal = tested on: SN12C renal
OVCAR-4 ovarian = tested on: OVCAR-4 ovarian
CCRF-CEM leukemia = tested on: CCRF-CEM leukemia
COLO 205 colon = tested on: COLO 205 colon
T-47D breast = tested on: T-47D breast
HS 578T breast = tested on: HS 578T breast
SF-268 CNS = tested on: SF-268 CNS
OVCAR-3 ovarian = tested on: OVCAR-3 ovarian
RPMI-8226 leukemia = tested on: RPMI-8226 leukemia
DU-145 prostate = tested on: DU-145 prostate
NCI-H23 lung = tested on: NCI-H23 lung
SF-539 CNS = tested on: SF-539 CNS
HOP-62 NSCLC = tested on: HOP-62 NSCLC
SK-MEL-2 melanoma = tested on: SK-MEL-2 melanoma
NCI-H522 lung = tested on: NCI-H522 lung
SR leukemia = tested on: SR leukemia
M14 melanoma = tested on: M14 melanoma
HOP-92 NSCLC = tested on: HOP-92 NSCLC
A549 NSCLC = tested on: A549 NSCLC
U251 CNS = tested on: U251 CNS
SK-MEL-5 melanoma = tested on: SK-MEL-5 melanoma
HCT-15 colon = tested on: HCT-15 colon
ACHN renal = tested on: ACHN renal
HCT-116 colon = tested on: HCT-116 colon
UACC-62 melanoma = tested on: UACC-62 melanoma
SNB-19 CNS = tested on: SNB-19 CNS
BT-549 breast = tested on: BT-549 breast
CAKI-1 renal = tested on: CAKI-1 renal
KM12 colon = tested on: KM12 colon
HT29 colon = tested on: HT29 colon
SK-MEL-28 melanoma = tested on: SK-MEL-28 melanoma
PC-3 prostate = tested on: PC-3 prostate
EKVX NSCLC = tested on: EKVX NSCLC
RXF 393 renal = tested on: RXF 393 renal
786-0 renal = tested on: 786-0 renal
TK-10 renal = tested on: TK-10 renal
MDA-MB-231 breast = tested on: MDA-MB-231 breast
OVCAR-8 ovarian = tested on: OVCAR-8 ovarian

C=C1C(=O)O[C@H]2[C@H]1CC/C(COC(=O)NCc1c[nH]c3ccc(Br)cc13)=C\CC[C@@]1(C)O[C@@H]21
GI50 (SK-OV-3 ovarian): 5.87 µM | TGI (SK-OV-3 ovarian): 18.5 µM | GI50 (IGROV1 ovarian): 1.45 µM | TGI (IGROV1 ovarian): 2.97 µM | GI50 (SNB-75 CNS): 1.26 µM | TGI (SNB-75 CNS): 2.53 µM | GI50 (UO-31 renal): 1.38 µM | TGI (UO-31 renal): 2.68 µM | GI50 (MALME-3M melanoma): 1.84 µM | TGI (MALME-3M melanoma): 3.53 µM | GI50 (NCI-H460 lung): 1.88 µM | TGI (NCI-H460 lung): 4.04 µM | GI50 (SF-295 CNS): 1.6 µM | TGI (SF-295 CNS): 3.29 µM | GI50 (HCC-2998 colon): 1.79 µM | TGI (HCC-2998 colon): 3.3 µM | GI50 (A498 renal): 1.67 µM | TGI (A498 renal): 3.25 µM | GI50 (MOLT-4 leukemia): 1.7 µM | TGI (MOLT-4 leukemia): 5.51 µM | GI50 (NCI/ADR-RES ovarian): 3.04 µM | TGI (NCI/ADR-RES ovarian): 12.4 µM | GI50 (OVCAR-5 ovarian): 1.76 µM | TGI (OVCAR-5 ovarian): 3.78 µM | GI50 (LOX IMVI melanoma): 0.701 µM | TGI (LOX IMVI melanoma): 2.05 µM | GI50 (UACC-257 melanoma): 1.44 µM | TGI (UACC-257 melanoma): 2.9 µM | GI50 (K-562 leukemia): 0.292 µM | TGI (K-562 leukemia): 1.53 µM | GI50 (NCI-H226 lung): 1.55 µM | TGI (NCI-H226 lung): 3.07 µM | GI50 (MDA-MB-435): 1.12 µM | TGI (MDA-MB-435): 2.55 µM | GI50 (SW-620 colon): 0.611 µM | TGI (SW-620 colon): 2.3 µM | GI50 (SN12C renal): 1.36 µM | TGI (SN12C renal): 3.12 µM | GI50 (OVCAR-4 ovarian): 1.45 µM | TGI (OVCAR-4 ovarian): 3.35 µM | GI50 (CCRF-CEM leukemia): 0.315 µM | TGI (CCRF-CEM leukemia): 1.58 µM | GI50 (COLO 205 colon): 0.884 µM | TGI (COLO 205 colon): 2.32 µM | GI50 (T-47D breast): 1.24 µM | TGI (T-47D breast): 2.99 µM | GI50 (HS 578T breast): 2.17 µM | TGI (HS 578T breast): 7.09 µM | GI50 (SF-268 CNS): 1.61 µM | TGI (SF-268 CNS): 3.41 µM | GI50 (OVCAR-3 ovarian): 1.01 µM | TGI (OVCAR-3 ovarian): 2.29 µM | GI50 (RPMI-8226 leukemia): 0.752 µM | TGI (RPMI-8226 leukemia): 3.57 µM | GI50 (DU-145 prostate): 1.11 µM | TGI (DU-145 prostate): 2.58 µM | GI50 (NCI-H23 lung): 1.66 µM | TGI (NCI-H23 lung): 3.35 µM | GI50 (SF-539 CNS): 1.66 µM | TGI (SF-539 CNS): 3.13 µM | GI50 (HOP-62 NSCLC): 1.52 µM | TGI (HOP-62 NSCLC): 3.35 µM | GI50 (SK-MEL-2 melanoma): 1.35 µM | TGI (SK-MEL-2 melanoma): 2.81 µM | GI50 (NCI-H522 lung): 0.589 µM | TGI (NCI-H522 lung): 2.05 µM | GI50 (SR leukemia): 0.296 µM | TGI (SR leukemia): 10.1 µM | GI50 (M14 melanoma): 1.35 µM | TGI (M14 melanoma): 3.07 µM | GI50 (HOP-92 NSCLC): 1.58 µM | TGI (HOP-92 NSCLC): 3.17 µM | GI50 (A549 NSCLC): 1.75 µM | TGI (A549 NSCLC): 3.65 µM | GI50 (U251 CNS): 1.63 µM | TGI (U251 CNS): 3.02 µM | GI50 (SK-MEL-5 melanoma): 1.63 µM | TGI (SK-MEL-5 melanoma): 2.99 µM | GI50 (HCT-15 colon): 0.461 µM | TGI (HCT-15 colon): 1.87 µM | GI50 (ACHN renal): 1.28 µM | TGI (ACHN renal): 2.58 µM | GI50 (HCT-116 colon): 0.619 µM | TGI (HCT-116 colon): 1.98 µM | GI50 (UACC-62 melanoma): 1.31 µM | TGI (UACC-62 melanoma): 2.64 µM | GI50 (SNB-19 CNS): 2.75 µM | TGI (SNB-19 CNS): 11.3 µM | GI50 (BT-549 breast): 1.29 µM | TGI (BT-549 breast): 2.92 µM | GI50 (CAKI-1 renal): 1.51 µM | TGI (CAKI-1 renal): 2.94 µM | GI50 (KM12 colon): 2.23 µM | TGI (KM12 colon): 5.07 µM | GI50 (HT29 colon): 0.794 µM | TGI (HT29 colon): 2.26 µM | GI50 (SK-MEL-28 melanoma): 1.72 µM | TGI (SK-MEL-28 melanoma): 3.37 µM | GI50 (PC-3 prostate): 1.51 µM | TGI (PC-3 prostate): 3.12 µM | GI50 (EKVX NSCLC): 1.58 µM | TGI (EKVX NSCLC): 3.05 µM | GI50 (RXF 393 renal): 1.25 µM | TGI (RXF 393 renal): 2.59 µM | GI50 (786-0 renal): 0.841 µM | TGI (786-0 renal): 2.36 µM | GI50 (TK-10 renal): 1.55 µM | TGI (TK-10 renal): 2.93 µM | GI50 (MDA-MB-231 breast): 1.49 µM | TGI (MDA-MB-231 breast): 3.07 µM | GI50 (OVCAR-8 ovarian): 1.35 µM | TGI (OVCAR-8 ovarian): 3.48 µM
